# Assay results reported in US20260107927A1, “ZEBRAFISH ANIMAL MODEL FOR INFLAMMATORY DISEASES AND METHOD FOR SCREEING ANTI-INFLAMMATORY AGENTS USING SAME” (RAYDEL KOREA CO., LTD., priority 2022, published 2026).
# What was measured:
# serum amyloid A (SAA) = assay: Plasma serum amyloid A after CML with or without test substances; type: in vivo, zebrafish (Danio rerio); conditions: FIG. 16
# Procedure: (§1) Blood was collected from zebrafish in each group, plasma was isolated, and total cholesterol (TC) and triglyceride (TG) were analyzed. Blood was collected from zebrafish in each group, plasma was isolated, and serum amyloid A (SAA), a biomarker of hepatitis induction, interleukin-6 (IL-6), a factor that induces an acute cytokine storm in the liver, and tumor necrosis factor-α (TNF-α), an inflammatory cytokine involved in liver inflammation were analyzed.
# [1] = system: liver tissue of zebrafish adults; assay: Hematoxylin-eosin (H&E) staining of liver tissue: inflammatory cell infiltration; type: in vivo, zebrafish (Danio rerio)
# Procedure: To compare the degree of acute cytokine storm induction by CML and alleviation, hematoxylin-eosin (H&E) staining was performed on zebrafish adults of the PBS-injected and CML-injected groups, and the degree of inflammatory cell infiltration in the liver tissue was investigated.
# That is, the inhibitory effect of the IL-6 inhibitor Actemra (Tocilizumab) on inflammation caused by CML-induced glycation toxicity was greater than that of the TNF-α inhibitor Remsima (Infliximab).
# zebrafish adults [2] = assay: Plasma total cholesterol (TC) and triglyceride (TG) after CML with or without test substances; type: in vivo, zebrafish (Danio rerio); conditions: for plasma triglyceride (TG) concentration: FIG. 15
# Procedure: Zebrafish adults were treated with CML at a concentration of 3 mM, and Actemra (Tocilizumab) and Remsima (Infliximab) were simultaneously treated to confirm the effects of the test substances on reducing total cholesterol (TC) and triglyceride (TG).
# Blood was collected from zebrafish in each group, plasma was isolated, and total cholesterol (TC) and triglyceride (TG) were analyzed.
# interleukin-6 (IL-6) = assay: Plasma interleukin-6 after CML with or without test substances; type: in vivo, zebrafish (Danio rerio); conditions: FIG. 17
# Procedure: as §1
# zebrafish embryos [3] = assay: CML microinjection into zebrafish embryos: survival rate and embryo development; type: in vivo, zebrafish (Danio rerio)
# Procedure: The present inventors constructed a zebrafish embryonic animal model microinjected with CML to establish an acute cytokine storm induction system. After confirming under a microscope that the freshly spawned zebrafish embryos were 30 minutes post-fertilization (0.5 hour post fertilization (0.5 hpf)), the fertilized embryos that were dividing normally were selected. […] The tip of the needle was sharpened by cutting it diagonally using a sharp forcep, a hole was made, and 5 μL of injection cocktail solution was added to the microglass needle.
# (§2) Eggs were densely packed and arranged at appropriate intervals on a 1% agarose gel with grooves of appropriate spacing to facilitate rapid microinjection. A microglass needle was attached to a microinjector (PV-830, World Precision Instruments, Sarasota, FL, USA), 5 μL of mineral oil was spread on a graduated hematocytometer, the needle was placed on top of it, and the contents were injected. The size of the bubble formed was measured and calibrated to the desired volume, after which it was injected into zebrafish embryos at the 2-cell and 4-cell stages.
# (§3) At this time, in order to minimize errors in the microinjection process, microinjection was performed as much as possible into the yolk area. After microinjection, the embryos were separated from the agarose gel and placed in a Petri dish, which was then filled with 20 mL of egg water (0.02 mg/L methylene blue) and stored at 28° C.
# To compare the survival rates of zebrafish embryos, the inventors prepared a non-injected group (No injection), a PBS-injected control group (PBS control), and a CML-injected group.
# [4] = system: tumor necrosis factor-α (TNF-α); assay: Plasma tumor necrosis factor-α after CML with or without test substances; type: in vivo, zebrafish (Danio rerio); conditions: FIG. 18
# Procedure: as §1
# zebrafish adults [5] = assay: Intraperitoneal CML plus test substances in zebrafish adults: recovery of swimming ability and survival; type: in vivo, zebrafish (Danio rerio); conditions: for swimming ability compared with CML injected group / recovery of ability to swim compared with CML injected group: co-injected with CML; for swimming ability compared with CML injected group: 30 minutes after injection; for survival rate of zebrafish adults: combined treatment with CML, FIG. 11
# Description: The cytokine storm suppression ability of the test substances was compared by confirming the swimming ability of zebrafish of the groups injected with PBS, CML, CML and Remsima (Infliximab), and CML and Actemra (Tocilizumab) via intraperitoneal administration (FIG. 9).
# The effects of the test substances in the CML and Remsima (Infliximab) injected group and the CML and Actemra (Tocilizumab) injected group were compared.
# zebrafish adults [6] = assay: Intraperitoneal CML injection into zebrafish adults: swimming ability, acute paralysis, survival
# Procedure: Movements of 10 zebrafish adults (16±3 weeks old) injected intraperitoneally with CML (250 μg, 10 μL) solution (final conc. of CML: 3 mM) and 10 zebrafish adults injected with PBS were observed 30 minutes and 1 hour after injection.
# zebrafish embryos [7] = assay: Combined microinjection of CML with test substances into zebrafish embryos: survival rate and development; type: in vivo, zebrafish (Danio rerio); conditions: for survival rate of embryos: co-injected with 500 ng CML, 43 ng Remsima or 44 ng Actemra, after 24 hours, FIG. 3; for rate of development: co-injected with CML, 25 hours post-injection; for rate of development / developmental defects: FIG. 4; for developmental defects: microinjected mixture with CML
# Procedure: The present inventors constructed a zebrafish embryonic animal model microinjected with CML to establish an acute cytokine storm induction system. After confirming under a microscope that the freshly spawned zebrafish embryos were 30 minutes post-fertilization (0.5 hour post fertilization (0.5 hpf)), the fertilized embryos that were dividing normally were selected. A capillary glass tube (TW100F-4, World Precision Instruments, Sarasota, FL, USA) was inserted into a micro-glass needle maker (PC-10, Narishege, Tokyo, Japan), and the coil was adjusted to be in the center of the capillary glass tube, and then a needle was made at a temperature of 71.3° C. The tip of the needle was sharpened by cutting it diagonally using a sharp forcep, a hole was made, and 5 μL of injection cocktail solution was added to the microglass needle.
# as §2
# as §3, with “C. All injection processes were performed under a stereomicroscope (SMZ-168, Motic, Hong Kong) at 20× magnification.” for “C.”
# [8] = CML-injected embryos, about 25 hours post-fertilization
# [9] = treated simultaneously with CML
# [10] = treated simultaneously with CML, FIGS. 12 and 13
# [11] = intraperitoneal, 1 hour after injection, FIG. 9
Compound,serum amyloid A (SAA) (serum amyloid A (SAA); [9]),"inflammatory cell infiltration in liver tissue [1, 10]",IL-6 (interleukin-6 (IL-6); [9]),"TNF-α [4, 9]",survival rate of embryos (zebrafish embryos [7]),rate of development (zebrafish embryos [7]),developmental defects (zebrafish embryos [7]),"swimming ability compared with CML injected group (zebrafish adults [5]; intraperitoneal, FIG. 9)",recovery of ability to swim compared with CML injected group (zebrafish adults [5]; [11]),survival rate of zebrafish adults (zebrafish adults [5]),other results
"N[C@@H](CCCCNCC(=O)O)C(=O)O [CML, N-ε-carboxymethyllysine]",–,–,–,–,–,–,–,–,–,–,"serum amyloid A (SAA) (serum amyloid A (SAA); CML alone): 59.7 ± 1.6 ng/mL; inflammatory cell infiltration in liver tissue ([1]; CML alone, FIGS. 12 and 13): approximately 23%; inflammatory cell infiltration in liver tissue ([1]; CML only injection group, FIG. 8): 27%; plasma total cholesterol (TC) concentration (zebrafish adults [2]; CML alone, 3 mM, FIG. 14): highest; plasma triglyceride (TG) concentration (zebrafish adults [2]; CML alone, 3 mM): highest; IL-6 (interleukin-6 (IL-6); CML alone): 76.4 ± 6.1 pg/mL; survival rate of zebrafish embryos (zebrafish embryos [3]; 500 ng CML microinjected (20 nL, 25 mg/mL in PBS), 24 hours, FIG. 1): 23.5%; developmental stage of embryos (zebrafish embryos [3]; 25 hours after CML injection, FIG. 2): 21-somite stage; developmental morphology (zebrafish embryos [3]; CML-injected embryos): developmental malformations were present in the head and tail; developmental state, equivalent time after fertilization (zebrafish embryos [3]; [8]): about 19.5 hours after fertilization; number of somites (zebrafish embryos [3]; [8]): about 21; TNF-α ([4]; CML alone): 43.5 ± 0.4 ng/mL; number of zebrafish showing recovery of swimming ability (zebrafish adults [5]; CML group, 3 mM intraperitoneal, 1 hour after injection, FIG. 9): 2 to 3; zebrafish that recovered the ability to swim (zebrafish adults [6]; CML 250 μg intraperitoneal (final 3 mM), 1 hour after injection, FIGS. 5 and 6): 25%; movement / swimming ability (zebrafish adults [6]; CML 250 μg, 10 μL intraperitoneal (final 3 mM), first 30 minutes after injection): immobilized and lying on the bottom; survival rate of zebrafish adults (zebrafish adults [6]; CML alone, intraperitoneal, after 60 minutes, FIG. 8): less than 49%"
"Actemra: biopharmaceutical, an IL-6 inhibitor, used as treatment agent for rheumatoid arthritis",38.8 ± 2.0 ng/mL,15-17%,51.8 ± 1.8 pg/mL,6.8 ± 2.6 ng/mL,53.1%,almost the same rate of development as embryos injected with PBS,no developmental defects were observed,More zebrafish,more zebrafish had regained the ability to swim,approximately 97%,"plasma triglyceride (TG) concentration (zebrafish adults [2]; treated simultaneously with 3 mM CML): lowest; recovery of swimming ability and survival rate compared with 43 μg Remsima (zebrafish adults [5]; 44 μg Actemra with CML, intraperitoneal, FIGS. 10 and 11): recovery of swimming ability was better and survival rate was increased"
"Remsima: biopharmaceutical, a TNF-α inhibitor, used as treatment agent for rheumatoid arthritis",41.2 ± 5.3 ng/mL,approximately 23%,62.8 ± 3.1 pg/mL,41.6 ± 5.8 ng/mL,38.4%,almost the same rate of development as embryos injected with PBS,no developmental defects were observed,More zebrafish,more zebrafish had regained the ability to swim,63%,–
